ChEMBL document CHEMBL1135126, “Identification of novel antifungal nonapeptides through the screening of combinatorial peptide libraries based on a hexapeptide motif” (Bioorg Med Chem Lett, 2002)
Values after ≈ are worked out from the molar mass of the structure shown.

Columns and labels:
Candida albicans = assay: Concentration that substantially inhibit growth of Candida albicans; assay type: functional, organism-based
Cryptococcus neoformans = assay: Concentration that substantially inhibit the growth of Cryptococcus neoformans; assay type: functional

| Compound | IC50 (Candida albicans) [µM] | MIC (Cryptococcus neoformans) [µM] |
| --- | --- | --- |
| CC[C@H](C)[C@H](NC(=O)[C@@H](Cc1ccccc1)NC(=O)[C@@H](Cc1c[nH]c2ccccc12)NC(=O)[C@@H](N)CCCN=C(N)N)C(=O)N[C@H](Cc1ccccc1)C(=O)N[C@@H](Cc1c[nH]cn1)C(=O)N[C@@H](CCCCN)C(=O)N[C@@H](CCCN=C(N)N)C(=O)N[C@@H](CC(C)C)C(N)=O | 4.37 | 2.39 (≈ 3.11 µg/mL) |
| CC[C@H](C)[C@H](NC(=O)[C@@H](Cc1ccccc1)NC(=O)[C@@H](Cc1c[nH]c2ccccc12)NC(=O)[C@@H](N)CCCN=C(N)N)C(=O)N[C@H](Cc1ccccc1)C(=O)N[C@@H](Cc1c[nH]cn1)C(=O)N[C@@H](CCCCN)C(=O)N[C@@H](CCCN=C(N)N)C(=O)N[C@@H](C)C(N)=O | 5.99 | 4.96 (≈ 6.25 µg/mL) |
| CC[C@H](C)[C@H](NC(=O)[C@@H](Cc1ccccc1)NC(=O)[C@@H](Cc1c[nH]c2ccccc12)NC(=O)[C@@H](N)CCCN=C(N)N)C(=O)N[C@H](Cc1ccccc1)C(=O)N[C@@H](Cc1c[nH]cn1)C(=O)N[C@@H](CCCCN)C(=O)N[C@@H](CCCCN)C(=O)N[C@@H](CC(C)C)C(N)=O | 2.18 | 2.4 (≈ 3.06 µg/mL) |
| CC[C@H](C)[C@H](NC(=O)[C@@H](Cc1ccccc1)NC(=O)[C@@H](Cc1c[nH]c2ccccc12)NC(=O)[C@@H](N)CCCN=C(N)N)C(=O)N[C@H](Cc1ccccc1)C(=O)N[C@@H](Cc1c[nH]cn1)C(=O)N[C@@H](CCCCN)C(=O)N[C@@H](CCCN=C(N)N)C(=O)N[C@H](C(N)=O)[C@@H](C)O | 5.97 | 4.84 (≈ 6.24 µg/mL) |
| CC[C@H](C)[C@H](NC(=O)[C@@H](Cc1ccccc1)NC(=O)[C@@H](Cc1c[nH]c2ccccc12)NC(=O)[C@@H](N)CCCN=C(N)N)C(=O)N[C@H](Cc1ccccc1)C(=O)N[C@@H](Cc1c[nH]cn1)C(=O)N[C@@H](CCCCN)C(=O)N[C@@H](CCCCN)C(=O)N[C@@H](CCC(N)=O)C(N)=O | 2.58 | 2.37 (≈ 3.05 µg/mL) |
| CC[C@H](C)[C@H](NC(=O)[C@@H](Cc1ccccc1)NC(=O)[C@@H](Cc1c[nH]c2ccccc12)NC(=O)[C@@H](N)CCCN=C(N)N)C(=O)N[C@H](Cc1ccccc1)C(=O)N[C@@H](Cc1c[nH]cn1)C(=O)N[C@@H](CCCCN)C(=O)N[C@@H](CCCN=C(N)N)C(=O)N[C@@H](Cc1c[nH]c2ccccc12)C(N)=O | 6.35 | 4.54 (≈ 6.24 µg/mL) |
| CC[C@H](C)[C@H](NC(=O)[C@@H](Cc1ccccc1)NC(=O)[C@@H](Cc1c[nH]c2ccccc12)NC(=O)[C@@H](N)CCCN=C(N)N)C(=O)N[C@H](Cc1ccccc1)C(=O)N[C@@H](Cc1c[nH]cn1)C(=O)N[C@@H](CCCCN)C(=O)N[C@@H](CCCCN)C(=O)N[C@@H](Cc1c[nH]c2ccccc12)C(N)=O | 2.61 | 1.14 (≈ 1.54 µg/mL) |
| CC[C@H](C)[C@H](NC(=O)[C@@H](Cc1ccccc1)NC(=O)[C@@H](Cc1c[nH]c2ccccc12)NC(=O)[C@@H](N)CCCN=C(N)N)C(=O)N[C@H](Cc1ccccc1)C(=O)N[C@@H](Cc1c[nH]cn1)C(=O)N[C@@H](CCCCN)C(=O)N[C@@H](CCCCN)C(=O)N[C@H](C(N)=O)[C@@H](C)O | 2.38 | 2.44 (≈ 3.08 µg/mL) |
| CC[C@H](C)[C@H](NC(=O)[C@@H](Cc1ccccc1)NC(=O)[C@@H](Cc1c[nH]c2ccccc12)NC(=O)[C@@H](N)CCCN=C(N)N)C(=O)N[C@H](Cc1ccccc1)C(=O)N[C@@H](Cc1c[nH]cn1)C(=O)N[C@@H](CCCCN)C(=O)N[C@@H](CCCN=C(N)N)C(=O)N[C@@H](CC(N)=O)C(N)=O | 4.64 | 2.39 (≈ 3.11 µg/mL) |
| CC[C@H](C)[C@H](NC(=O)[C@@H](Cc1ccccc1)NC(=O)[C@@H](Cc1c[nH]c2ccccc12)NC(=O)[C@@H](N)CCCN=C(N)N)C(=O)N[C@H](Cc1ccccc1)C(=O)N[C@@H](Cc1c[nH]cn1)C(=O)N[C@@H](CCCCN)C(=O)N[C@@H](CCCCN)C(=O)N[C@@H](CCCCN)C(N)=O | 1.83 | 2.37 (≈ 3.05 µg/mL) |
| CC[C@H](C)[C@H](NC(=O)[C@@H](Cc1ccccc1)NC(=O)[C@@H](Cc1c[nH]c2ccccc12)NC(=O)[C@@H](N)CCCN=C(N)N)C(=O)N[C@H](Cc1ccccc1)C(=O)N[C@@H](Cc1c[nH]cn1)C(=O)N[C@@H](CCCCN)C(=O)N[C@@H](CCCCN)C(=O)N[C@@H](Cc1ccc(O)cc1)C(N)=O | 2.74 | 1.16 (≈ 1.54 µg/mL) |
| CC[C@H](C)[C@H](NC(=O)[C@@H](Cc1ccccc1)NC(=O)[C@@H](Cc1c[nH]c2ccccc12)NC(=O)[C@@H](N)CCCN=C(N)N)C(=O)N[C@H](Cc1ccccc1)C(=O)N[C@@H](Cc1c[nH]cn1)C(=O)N[C@@H](CCCCN)C(=O)N[C@@H](CCCN=C(N)N)C(=O)N[C@@H](Cc1ccccc1)C(N)=O | 5.5 | 4.67 (≈ 6.24 µg/mL) |
| CC[C@H](C)[C@H](NC(=O)[C@@H](Cc1ccccc1)NC(=O)[C@@H](Cc1c[nH]c2ccccc12)NC(=O)[C@@H](N)CCCN=C(N)N)C(=O)N[C@H](Cc1ccccc1)C(=O)N[C@@H](Cc1c[nH]cn1)C(=O)N[C@@H](CCCCN)C(=O)N[C@@H](CCCN=C(N)N)C(=O)N1CCC[C@H]1C(N)=O | 4.7 | 2.42 (≈ 3.11 µg/mL) |
| CC[C@H](C)[C@H](NC(=O)[C@@H](Cc1ccccc1)NC(=O)[C@@H](Cc1c[nH]c2ccccc12)NC(=O)[C@@H](N)CCCN=C(N)N)C(=O)N[C@H](Cc1ccccc1)C(=O)N[C@@H](Cc1c[nH]cn1)C(=O)N[C@@H](CCCCN)C(=O)N[C@@H](CCCN=C(N)N)C(=O)N[C@@H](CCC(N)=O)C(N)=O | 3.92 | 4.74 (≈ 6.24 µg/mL) |
| CC[C@H](C)[C@H](NC(=O)[C@@H](Cc1ccccc1)NC(=O)[C@@H](Cc1c[nH]c2ccccc12)NC(=O)[C@@H](N)CCCN=C(N)N)C(=O)N[C@H](Cc1ccccc1)C(=O)N[C@@H](Cc1c[nH]cn1)C(=O)N[C@@H](CCCCN)C(=O)N[C@@H](CCCN=C(N)N)C(=O)N[C@@H](CO)C(N)=O | 4.38 | 4.89 (≈ 6.24 µg/mL) |
| CC[C@H](C)[C@H](NC(=O)[C@@H](Cc1ccccc1)NC(=O)[C@@H](Cc1c[nH]c2ccccc12)NC(=O)[C@@H](N)CCCN=C(N)N)C(=O)N[C@H](Cc1ccccc1)C(=O)N[C@@H](Cc1c[nH]cn1)C(=O)N[C@@H](CCCCN)C(=O)N[C@@H](CCCN=C(N)N)C(=O)N[C@@H](CCCCN)C(N)=O | 3.34 | 2.36 (≈ 3.11 µg/mL) |
| CC[C@H](C)[C@H](NC(=O)[C@@H](Cc1ccccc1)NC(=O)[C@@H](Cc1c[nH]c2ccccc12)NC(=O)[C@@H](N)CCCN=C(N)N)C(=O)N[C@H](Cc1ccccc1)C(=O)N[C@@H](Cc1c[nH]cn1)C(=O)N[C@@H](CCCCN)C(=O)N[C@@H](CCCCN)C(=O)N[C@@H](CCSC)C(N)=O | 2.62 | 2.37 (≈ 3.06 µg/mL) |
